Experimental data reported in PubChem BioAssay AID330 (DTP/NCI, 2004).
Where “and” joins values, the source holds several entries; their conditions need not be identical. Identical values can stand only once. Inconclusive results and toxic doses are left out. The calls were made as follows: active = survival T/C of 150% or more; inactive = T/C below 125% in these data.

Test system: P388 leukemia ip, CD2F1 mice, survival T/C
Assay: NCI In Vivo Anticancer Drug Screen. Data for tumor model P388 Leukemia (intraperitoneal) in CD2F1 (CDF1) mice
Details: endpoint: median survival time, higher = longer survival
In short: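 Mice carrying the transplanted tumor received test compound or vehicle. Survival was recorded in each group, and the value is the treated-group measurement divided by that of the vehicle-treated control group.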

[1] = dose: 60.0 mg/kg/injection, schedule: Q01DX005 (ip), vehicle: Klucel (hydroxypropylcellulose) (HPC)
[2] = dose: 120.0 mg/kg/injection, schedule: Q01DX005 (ip), vehicle: Klucel (hydroxypropylcellulose) (HPC)
[3] = dose: 240.0 mg/kg/injection, schedule: Q01DX005 (ip), vehicle: Klucel (hydroxypropylcellulose) (HPC)
[4] = dose: 100.0 mg/kg/injection, schedule: Q01DX001 (ip), vehicle: saline with Tween-80

Measured: T/C

CCNC1(c2ccccc2)CCCCC1
inactive: dose: 6.25 mg/kg/injection, schedule: Q04DX003 (ip), vehicle: saline 121 % of control | dose: 12.5 mg/kg/injection, schedule: Q04DX003 (ip), vehicle: saline 106 % of control | dose: 25.0 mg/kg/injection, schedule: Q04DX003 (ip), vehicle: saline 104 % of control

C=C1C(=O)OC2/C=C(\C)C(O)CC(O)C(C)(O)CC(OC(=O)/C(C)=C/C)C12 (stereo not given)
inactive: dose: 10.0 mg/kg/injection, schedule: Q01DX009 (ip), vehicle: saline with Tween-80 102 % of control | dose: 20.0 mg/kg/injection, schedule: Q01DX009 (ip), vehicle: saline with Tween-80 100 % of control and 119 % of control and 97 % of control | dose: 40.0 mg/kg/injection, schedule: Q01DX009 (ip), vehicle: saline with Tween-80 101 % of control and 113 % of control and 123 % of control | dose: 80.0 mg/kg/injection, schedule: Q01DX009 (ip), vehicle: saline with Tween-80 113 % of control and 115 % of control

O=C(O)/C=C\C(=O)OCc1ccc(Cl)cc1Cl
inactive: dose: 25.0 mg/kg/injection, schedule: Q01DX009 (ip), vehicle: saline with Tween-80 86 % of control | dose: 50.0 mg/kg/injection, schedule: Q01DX009 (ip), vehicle: saline with Tween-80 90 % of control

CN1C(=O)C(Br)(Br)CC1c1cccnc1 (stereo not given)
inactive: [1] 101 % of control | [2] 109 % of control | [3] 100 % of control

COc1ccc(CS(=O)(=O)c2cncnc2N)cc1OC
inactive: dose: 100.0 mg/kg/injection, schedule: Q01DX001 (ip), vehicle: saline 106 % of control | dose: 200.0 mg/kg/injection, schedule: Q01DX001 (ip), vehicle: saline 96 % of control | dose: 400.0 mg/kg/injection, schedule: Q01DX001 (ip), vehicle: saline 101 % of control

O=C(O)c1nn(Cc2ccc(Br)cc2Br)c2ccccc12
inactive: [4] 114 % of control | dose: 200.0 mg/kg/injection, schedule: Q01DX001 (ip), vehicle: saline with Tween-80 104 % of control | dose: 400.0 mg/kg/injection, schedule: Q01DX001 (ip), vehicle: saline with Tween-80 114 % of control

CCCCCCCCCCCCCCCCC[CH2][Sn](=[O])[OH]
inactive: dose: 50.0 mg/kg/injection, schedule: Q01DX009 (ip), vehicle: saline 111 % of control | dose: 100.0 mg/kg/injection, schedule: Q01DX009 (ip), vehicle: saline 113 % of control | dose: 200.0 mg/kg/injection, schedule: Q01DX009 (ip), vehicle: saline 114 % of control

Nc1ncnc2c1ncn2C1OC(COS(N)(=O)=O)C(O)C1O (stereo not given)
inactive: dose: 0.02 mg/kg/injection, schedule: Q01DX005 (ip), vehicle: saline 98 % of control | dose: 0.04 mg/kg/injection, schedule: Q01DX005 (ip), vehicle: saline 103 % of control | dose: 0.09 mg/kg/injection, schedule: Q01DX005 (ip), vehicle: saline 119 % of control | dose: 0.18 mg/kg/injection, schedule: Q01DX001 (ip), vehicle: saline 109 % of control

Cc1c(N=Nc2cccc(Cl)c2Cl)c(-c2ccccc2)nn1C(N)=S
inactive: dose: 25.0 mg/kg/injection, schedule: Q01DX005 (ip), vehicle: Klucel (hydroxypropylcellulose) (HPC) 94 % of control | dose: 50.0 mg/kg/injection, schedule: Q01DX005 (ip), vehicle: Klucel (hydroxypropylcellulose) (HPC) 99 % of control | dose: 100.0 mg/kg/injection, schedule: Q01DX005 (ip), vehicle: Klucel (hydroxypropylcellulose) (HPC) 96 % of control

NSc1ccccn1
inactive: dose: 25.0 mg/kg/injection, schedule: Q01DX001 (ip), vehicle: Klucel (hydroxypropylcellulose) (HPC) 96 % of control | dose: 50.0 mg/kg/injection, schedule: Q01DX001 (ip), vehicle: Klucel (hydroxypropylcellulose) (HPC) 96 % of control | dose: 100.0 mg/kg/injection, schedule: Q01DX001 (ip), vehicle: Klucel (hydroxypropylcellulose) (HPC) 97 % of control | [4] 102 % of control

COC(=O)C(O)C1OC(COCc2ccccc2)C(OCc2ccccc2)C1OCc1ccccc1 (stereo not given)
inactive: dose: 12.5 mg/kg/injection, schedule: Q01DX009 (ip), vehicle: distilled water + alcohol 100 % of control | dose: 25.0 mg/kg/injection, schedule: Q01DX009 (ip), vehicle: distilled water + alcohol 100 % of control | dose: 50.0 mg/kg/injection, schedule: Q01DX009 (ip), vehicle: distilled water + alcohol 103 % of control | dose: 100.0 mg/kg/injection, schedule: Q01DX009 (ip), vehicle: distilled water + alcohol 100 % of control | dose: 200.0 mg/kg/injection, schedule: Q01DX009 (ip), vehicle: distilled water + alcohol 112 % of control

CCCCCCCCN(CCCCCCCC)/N=C/c1c2c(O)c3c(O)c(C)c4c(c3c1O)C(=O)C(C)(O/C=C/C(OC)C(C)C(OC(C)=O)C(C)C(O)C(C)C(O)C(C)/C=C/C=C(C)C(=O)N2)O4 (stereo not given)
inactive: [1] 95 % of control | [2] 89 % of control | [3] 92 % of control
